# Reference: patent US5565489A, “Epoxycyclohexenedione derivatives” (Kyowa Hakko Kogyo Co., Ltd., priority 1993, dated 1996)
# Experiments:
# [1] = system: Enterococcus faecium ATCC 10541; experiment: Antimicrobial activity, agar dilution method (EF); type: cell-based; settings: ATCC10541, pH 7
# Description: (§1) Antimicrobial activity was measured by an agar dilution method using a culture medium (pH 7) prepared by dissolving 3 g of Bacto-tryptone (Difco), 3 g of meat extract, 1 g of yeast extract, 1 g of glucose, and 16 g of agar in 1 l of water. The antimicrobial activity was expressed in terms of minimum growth inhibitory concentration (MIC).
# FTase [2] = biological target: T1, FTase (Bos taurus, UniProt P29702+P49355); experiment: FTase inhibitory activity (farnesylation of C-terminal peptide of lamin B, crude bovine brain enzyme, FTase [^3 H]SPA enzyme assay kit); type: biochemical; settings: for inhibitory activity against FTase (in words): Table 2 summary; for IC50: bovine brain enzyme, lamin B C-terminal peptide
# T1 construct: An extract of minced bovine brain was subjected to column chromatography on DEAE-Sephacel (Pharmacia); from tissue; host or cells: bovine brain; DEAE-Sephacel active fraction, crude enzyme solution
# Description: (§2) FTase Inhibitory Activity
# An extract of minced bovine brain was subjected to column chromatography on DEAE-Sephacel (Pharmacia). The active fraction was concentrated by ultrafiltration and dialyzed against a mixture of 20 mM Tris-HCl (pH 8.0), 50 mM NaCl, […], 1 mM DTT, 0.2 mM phenylmethylsulfonyl fluoride (PMSF). The resulting dialysate was used as a crude enzyme solution. Measurement of activity was carried out by using the enzyme obtained by the above-mentioned method and an FTase [^3 H]SPA enzyme assay kit (Amersham). Enzyme inhibitory activity was measured as inhibition of farnesylation of the C-terminal peptide of lamin B by the test compound in the above-mentioned reaction system. The enzyme inhibitory activity of a group treated with a test compound of a known concentration was compared with that of a non-treated group to calculate the concentration of the test compound for 50% inhibition of farnesylation (IC50).
# [3] = system: Staphylococcus aureus, Enterococcus faecium, Bacillus subtilis; experiment: Antimicrobial activity, agar dilution method (summary of Table 4); type: cell-based; settings: Table 4 summary
# Description: as §1
# [4] = system: Staphylococcus aureus ATCC 6538P; experiment: Antimicrobial activity, agar dilution method (SA); type: cell-based; settings: ATCC6538P, pH 7
# Description: as §1
# [5] = system: Bacillus subtilis No. 10707; experiment: Antimicrobial activity, agar dilution method (BS); type: cell-based; settings: pH 7
# Description: as §1
# FTase [6] = settings: not numerically described; cited from earlier work
# FTase [7] = biological target: T2, FTase (Rattus norvegicus, UniProt Q02293+Q04631); experiment: FTase inhibitory activity (farnesylation of v-Ki-ras p21, partially purified rat brain FTase); type: biochemical; settings: for IC50: rat brain FTase, v-Ki-ras p21 substrate
# T2 construct: The FTase used for the assay was obtained from rat brain as follows; from tissue; host or cells: male rat brain; ammonium sulfate fraction, Mono Q 10/10, partially purified
# Description: as §2
# The FTase used for the assay was obtained from rat brain as follows. An extract of minced brain of a male rat was salted out using ammonium sulfate. The fraction obtained at 50% saturation was dissolved in a buffer solution (20 mM Tris-HCl, pH 7.5, 1 mM dithiothreitol (DTT), 20 μM ZnCl2) and further fractionated by column chromatography using a Mono Q 10/10 column. The column was eluted by gradient elution with 0.3 to 0.4 M NaCl. The active fraction eluted at near 0.35 M NaCl, was used as a partially purified preparation. Measurement of the activity was carried out by using the thus prepared enzyme and v-Ki-ras p21 as a substrate. The v-Ki-ras p21, used as a substrate, was obtained by high expression using Escherichia coli, followed by purification according to the method of Tamaoki, et al. [Biochem. Biophys. […] The enzyme inhibitory activity was measured as inhibition of the test compound on farnesylation of the C-terminal of v-ki-ras p21 in the above-mentioned reaction system.
# FTase of yeast origin = settings: ras protein of yeast origin as substrate; read-out: IC50 against FTase of yeast origin; cited from earlier work
# [8] = system: NIH 3T3 fibroblasts transformed by oncogene EJ-ras; experiment: Inhibitory activity on cell growth of NIH 3T3/EJ-ras; type: cell-based
# Description: Inhibitory Activity on Cell Growth
# The antitumor activity was measured by using NIH 3T3 fibroblasts transformed by oncogene EJ-ras (hereinafter referred to as "NIH 3T3/EJ-ras").
# NIH 3T3/EJ-ras cells were suspended in a DME medium (Nissui KK) containing 10% fetal bovine serum, penicillin (100 U/ml) and streptomycin (100 μg/ml) (hereinafter referred to as medium A) in a cell concentration of 1.0×10^4 cells/ml. Each well of a […] microtiter plate was inoculated with 0.1 ml of the cell suspension, and the system was monolayer cultured by incubation in a carbondioxide incubator at 37° C. for 24 hours. To each well was added 0.1 ml of a test compound appropriately diluted with medium A, followed by incubation in the carbondioxide incubator at 37° C. for 72 hours. The cells were recovered by trypsinization, and the number of the cells was counted with a cell counter. A concentration of the test compound for 50% inhibition of cell growth (IC50) was calculated.
Compound,MIC [1] [µg/mL],IC50 (FTase [2]) [µM],MIC [4] [µg/mL],MIC [5] [µg/mL],inhibitory activity against FTase (in words) (FTase [2]),antimicrobial activity (in words) [3],FTase inhibitory activity (in words) (FTase [6]),other results
CCCCC(C)/C=C(\C)C(=O)NC1=CC(=O)[C@@H]2O[C@@H]2C1=O (stereo partly drawn) [IVb],–,–,–,–,–,–,the activity of these compounds can be detected,–
"CCCC[C@@H](C)/C=C(C)/C=C(\C)C(=O)NC1=CC(=O)[C@@H]2O[C@@H]2C1=O [IVa, reference compound]",–,–,–,–,–,–,the activity of these compounds can be detected,IC50 (FTase [7]; Experiment 2): 60 µM
"CCCC[C@@H](C)/C=C(C)/C=C(\C)C(=O)NC1=C[C@](O)(/C=C/C=C/C=C/C(=O)NC2=C(O)CCC2=O)[C@@H]2O[C@@H]2C1=O [Manumycin, reference compound]",–,–,–,–,–,–,–,IC50 (FTase [7]; Experiment 1): 76 µM; IC50 (FTase [7]; Experiment 2): 35 µM; IC50 (FTase of yeast origin): 5 µM
CCCCC(C)/C=C(C)/C=C/C(=O)NC1=CC(=O)[C@@H]2O[C@@H]2C1=O (stereo partly drawn) [IVc],–,–,–,–,–,–,the activity of these compounds can be detected,–

# The next lines start with results.
MIC [1] [µg/mL],IC50 (FTase [2]) [µM],MIC [4] [µg/mL],MIC [5] [µg/mL],Compound,inhibitory activity against FTase (in words) (FTase [2]),antimicrobial activity (in words) [3],FTase inhibitory activity (in words) (FTase [6]),other results
0.33,19,> 100,0.65,"CCCCC/C=C\C/C=C\CCCCCCCC(=O)NC1=CC(=O)C2OC2C1=O (stereo not drawn) [Compound I-4, 4,5-Epoxy-1-linoleoylamino-3,6-dioxocyclohexene]",obvious inhibitory activity against FTase,remarkable antimicrobial activity,–,–
0.04,21,> 100,0.08,"CCCCCCCCCCCC(=O)NC1=CC(=O)C2OC2C1=O (stereo not drawn) [Compound I-2, 4,5-Epoxy-l-lauroylamino-3,6-dioxocyclohexene]",obvious inhibitory activity against FTase,remarkable antimicrobial activity,–,–
0.65,23,> 100,0.65,"CC(C)=CCC/C(C)=C/CC/C(C)=C/CC/C(C)=C/C(=O)NC1=CC(=O)C2OC2C1=O (stereo not drawn) [Compound I-5, 4,5-Epoxy-1-geranylgeranoylamino-3,6-dioxocyclohexene]",obvious inhibitory activity against FTase,remarkable antimicrobial activity,–,–
0.46,21,0.91,0.46,"CC(C)=CCC/C(C)=C/CC/C(C)=C/C(=O)NC1=CC(=O)[C@@H]2O[C@@H]2C1=O (relative stereo) [Compound I-1, 4,5-Epoxy-1-farnesoylamino-3,6-dioxocyclohexene]",obvious inhibitory activity against FTase,remarkable antimicrobial activity,–,"IC50 (FTase [7]; Experiment 1): 18 µM; inhibitory activity against FTase (in words) (FTase [7]; Table 1 summary): obvious inhibitory activity against FTase; inhibitory activity compared with manumycin and compound IVa (in words) (FTase [7]; Table 1 summary, as compared with manumycin and compound IVa): significantly strong as compared with those of manumycin and compound IVa; IC50 ([8]; Mus musculus, NIH3T3, NIH 3T3/EJ-ras, 72 hours): 4.3 µM; inhibitory activity on growth (in words) ([8]; Table 3 summary): obvious inhibitory activity on growth of the NIH 3T3 fibroblasts transformed by oncogene EJ-ras"
